Source: patent publication US20080009418A1, “Selective Inhibitors” (Alchemia LTD., priority 2004, published 2008)

What was measured:
Human δ-opioid (DOP) = biological target: T1, Human δ-opioid (DOP) (Homo sapiens, UniProt P41143); assay: Radioligand binding, human δ-opioid (DOP) membranes, FlashPlate, [3H]-Bremazocine; conditions: compound at 10 μM; [3H]-Bremazocine
T1 construct: purchased Perkin Elmer Biosignal
Summary of the method: (§1)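 Cloned human receptor membranes were coated onto FlashPlate wells and incubated with radioligand and compound (added from a 0.5 mM DMSO daughter plate) for 1 hour at room temperature in the dark. Scintillation counting gave percent inhibition, with DMSO defining total and reference ligand defining non-specific binding.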

Human κ-Opioid (KOP) = biological target: T2, Human κ-Opioid (KOP) (Homo sapiens, UniProt P41145); assay: Radioligand binding, human κ-opioid (KOP) membranes, filtration, [3H]-Diprenorphine; conditions: compound at 10 μM; [3H]-Diprenorphine
T2 construct: purchased Perkin Elmer Biosignal
T2 sequence (P41145 whole entry): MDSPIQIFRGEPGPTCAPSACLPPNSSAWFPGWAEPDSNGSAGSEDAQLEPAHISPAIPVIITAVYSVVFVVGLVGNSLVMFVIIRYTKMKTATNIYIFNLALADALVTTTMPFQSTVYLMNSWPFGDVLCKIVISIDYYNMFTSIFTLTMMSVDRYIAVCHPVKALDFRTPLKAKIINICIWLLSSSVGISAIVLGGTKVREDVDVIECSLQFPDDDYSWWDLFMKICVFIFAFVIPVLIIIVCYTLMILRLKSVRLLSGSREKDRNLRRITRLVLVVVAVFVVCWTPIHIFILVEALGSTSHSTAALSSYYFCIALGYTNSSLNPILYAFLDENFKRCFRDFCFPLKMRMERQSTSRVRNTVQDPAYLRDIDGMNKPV
Summary of the method: (§2)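 Membranes from cloned human receptors were incubated with compound and radioligand for 1 hour at room temperature. Bound ligand was collected on 0.3% PEI-soaked filters, washed with cold 50 mM Tris-HCl pH 7.4, and counted by scintillation. Percent inhibition was computed against DMSO totals and reference-ligand nonspecific wells.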

Human Melanocortin (MC3) = biological target: T3, Human Melanocortin (MC3) (Homo sapiens, UniProt P41968); assay: Radioligand binding, human melanocortin MC3 membranes, FlashPlate, [125I]-NDP-αMSH; conditions: compound at 10 μM; [125I]-NDP-αMSH
T3 construct: purchased Perkin Elmer Biosignal
T3 sequence (P41968 whole entry): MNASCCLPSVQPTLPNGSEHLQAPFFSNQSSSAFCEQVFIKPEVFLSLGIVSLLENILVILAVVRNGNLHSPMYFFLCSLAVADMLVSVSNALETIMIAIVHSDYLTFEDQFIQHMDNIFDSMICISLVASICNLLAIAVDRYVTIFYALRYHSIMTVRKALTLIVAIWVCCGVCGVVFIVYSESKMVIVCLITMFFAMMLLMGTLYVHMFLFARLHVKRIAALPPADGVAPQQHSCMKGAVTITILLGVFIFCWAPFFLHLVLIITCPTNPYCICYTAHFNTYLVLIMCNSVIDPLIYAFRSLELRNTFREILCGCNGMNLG
Summary of the method: as §1

Human Melanocortin (MC4) = biological target: T4, Human Melanocortin (MC4) (Homo sapiens, UniProt P32245); assay: Radioligand binding, human melanocortin MC4 membranes, FlashPlate, [125I]-NDP-αMSH; conditions: compound at 10 μM; [125I]-NDP-αMSH
T4 construct: purchased Perkin Elmer Biosignal
T4 sequence (P32245 whole entry): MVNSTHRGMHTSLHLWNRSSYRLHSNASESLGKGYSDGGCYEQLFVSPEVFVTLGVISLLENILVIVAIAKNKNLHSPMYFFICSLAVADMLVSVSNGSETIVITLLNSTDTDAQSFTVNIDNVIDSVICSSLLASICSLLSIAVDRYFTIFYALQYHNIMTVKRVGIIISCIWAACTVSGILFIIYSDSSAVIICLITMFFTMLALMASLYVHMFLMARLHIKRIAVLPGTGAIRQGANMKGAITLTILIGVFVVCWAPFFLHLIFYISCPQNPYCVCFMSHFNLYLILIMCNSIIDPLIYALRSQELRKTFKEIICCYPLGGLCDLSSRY
Summary of the method: as §1

Human melanocortin (MC5) = biological target: T5, Human melanocortin (MC5) (Homo sapiens, UniProt P33032); assay: Radioligand binding, human melanocortin MC5 membranes, FlashPlate, [125I]-NDP-αMSH; conditions: compound at 10 μM; [125I]-NDP-αMSH
T5 construct: purchased Perkin Elmer Biosignal
T5 sequence (P33032 whole entry): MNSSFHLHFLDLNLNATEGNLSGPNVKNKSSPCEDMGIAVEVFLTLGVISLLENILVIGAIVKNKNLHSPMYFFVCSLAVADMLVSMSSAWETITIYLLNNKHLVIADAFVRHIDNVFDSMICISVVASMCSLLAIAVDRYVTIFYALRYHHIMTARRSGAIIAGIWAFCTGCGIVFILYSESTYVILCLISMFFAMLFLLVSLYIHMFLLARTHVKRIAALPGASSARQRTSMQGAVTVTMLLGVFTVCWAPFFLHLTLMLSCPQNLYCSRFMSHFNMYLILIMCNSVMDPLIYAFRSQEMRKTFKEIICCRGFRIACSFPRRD
Summary of the method: as §1

[1] = biological target: T6, Human melanin-concentrating hormone (MCH1) (Homo sapiens, UniProt Q99705); assay: Radioligand binding, human melanin-concentrating hormone MCH1 membranes, FlashPlate, [125I]-S36057; conditions: compound at 10 μM; [125I]-S36057
T6 construct: purchased Perkin Elmer Biosignal
T6 sequence (Q99705 whole entry): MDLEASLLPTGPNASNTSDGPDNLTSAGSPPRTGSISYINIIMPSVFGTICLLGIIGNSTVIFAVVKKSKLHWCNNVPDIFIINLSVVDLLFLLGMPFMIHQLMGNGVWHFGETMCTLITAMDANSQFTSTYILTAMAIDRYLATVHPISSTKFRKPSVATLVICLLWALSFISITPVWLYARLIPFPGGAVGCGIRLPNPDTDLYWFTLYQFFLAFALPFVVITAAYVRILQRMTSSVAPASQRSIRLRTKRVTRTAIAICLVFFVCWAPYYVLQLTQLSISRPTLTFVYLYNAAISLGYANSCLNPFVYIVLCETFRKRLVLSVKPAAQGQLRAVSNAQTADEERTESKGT
Summary of the method: as §1

Human μ-opioid (MOP) = biological target: T7, Human μ-opioid (MOP) (Homo sapiens, UniProt P35372); assay: Radioligand binding, human μ-opioid (MOP) membranes, FlashPlate, [3H]-Naloxone; conditions: compound at 10 μM; [3H]-Naloxone
T7 construct: purchased Perkin Elmer Biosignal
T7 sequence (P35372 whole entry): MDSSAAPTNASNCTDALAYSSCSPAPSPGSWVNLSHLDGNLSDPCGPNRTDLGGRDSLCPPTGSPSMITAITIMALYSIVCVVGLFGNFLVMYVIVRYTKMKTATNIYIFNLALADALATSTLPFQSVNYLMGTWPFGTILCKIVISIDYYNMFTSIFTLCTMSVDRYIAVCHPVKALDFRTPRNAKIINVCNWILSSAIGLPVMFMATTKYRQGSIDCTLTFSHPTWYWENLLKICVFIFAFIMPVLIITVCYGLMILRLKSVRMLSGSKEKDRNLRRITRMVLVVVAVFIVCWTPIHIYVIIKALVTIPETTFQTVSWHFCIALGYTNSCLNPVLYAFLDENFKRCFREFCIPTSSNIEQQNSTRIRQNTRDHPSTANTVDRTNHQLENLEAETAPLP
Summary of the method: as §1

Human neurokinin (NK1) = biological target: T8, Human neurokinin (NK1) (Homo sapiens, UniProt P25103); assay: Radioligand binding, human neurokinin NK1 membranes, filtration, [125I]-Substance P; conditions: compound at 10 μM; [125I]-Substance P
T8 construct: purchased Perkin Elmer Biosignal
T8 sequence (P25103 whole entry): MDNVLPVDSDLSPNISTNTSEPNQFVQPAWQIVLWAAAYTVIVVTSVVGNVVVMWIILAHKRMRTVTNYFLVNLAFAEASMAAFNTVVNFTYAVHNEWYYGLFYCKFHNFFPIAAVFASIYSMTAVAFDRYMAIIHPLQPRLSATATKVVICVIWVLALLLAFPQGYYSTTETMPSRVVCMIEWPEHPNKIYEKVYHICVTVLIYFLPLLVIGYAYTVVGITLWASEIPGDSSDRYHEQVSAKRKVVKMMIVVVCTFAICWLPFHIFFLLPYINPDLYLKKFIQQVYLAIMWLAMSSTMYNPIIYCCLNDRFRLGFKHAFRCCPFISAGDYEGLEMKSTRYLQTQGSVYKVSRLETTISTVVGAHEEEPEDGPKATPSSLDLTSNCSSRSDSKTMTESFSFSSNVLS
Summary of the method: as §2

[2] = biological target: T9, Human neuropeptide Y (NPY-Y1) (Homo sapiens, UniProt P25929); assay: Radioligand binding, human neuropeptide Y NPY-Y1 membranes, FlashPlate, [125I]-PYY; conditions: compound at 10 μM; [125I]-PYY
T9 construct: purchased Perkin Elmer Biosignal
T9 sequence (P25929 1-384): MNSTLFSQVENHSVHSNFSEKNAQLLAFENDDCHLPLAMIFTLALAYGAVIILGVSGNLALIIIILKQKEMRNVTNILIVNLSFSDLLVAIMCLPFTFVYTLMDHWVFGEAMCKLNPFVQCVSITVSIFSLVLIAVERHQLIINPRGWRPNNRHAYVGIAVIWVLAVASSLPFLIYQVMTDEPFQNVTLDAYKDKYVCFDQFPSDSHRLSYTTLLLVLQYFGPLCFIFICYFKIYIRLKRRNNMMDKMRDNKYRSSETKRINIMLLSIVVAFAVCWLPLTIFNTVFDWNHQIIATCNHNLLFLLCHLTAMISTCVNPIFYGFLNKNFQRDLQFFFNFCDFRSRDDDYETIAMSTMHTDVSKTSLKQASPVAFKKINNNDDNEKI
Summary of the method: as §1

Human opioid (ORL1) = biological target: T10, Human opioid (ORL1) (Homo sapiens, UniProt P41146); assay: Radioligand binding, human opioid ORL1 membranes, FlashPlate, [125I]-Nociceptin; conditions: compound at 10 μM; [125I]-Nociceptin
T10 construct: purchased Perkin Elmer Biosignal
T10 sequence (P41146 whole entry): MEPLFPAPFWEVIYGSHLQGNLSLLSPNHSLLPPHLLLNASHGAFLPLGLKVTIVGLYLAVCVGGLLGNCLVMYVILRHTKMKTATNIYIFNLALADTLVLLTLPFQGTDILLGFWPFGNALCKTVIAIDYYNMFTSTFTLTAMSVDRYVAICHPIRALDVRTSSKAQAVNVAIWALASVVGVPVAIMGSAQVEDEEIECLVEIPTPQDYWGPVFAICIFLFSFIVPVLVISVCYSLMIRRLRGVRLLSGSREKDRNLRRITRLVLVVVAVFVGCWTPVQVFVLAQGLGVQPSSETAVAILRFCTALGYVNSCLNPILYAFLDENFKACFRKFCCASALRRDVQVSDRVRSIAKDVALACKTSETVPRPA
Summary of the method: as §1

Mouse urotensin (mUR2) = biological target: T11, Mouse urotensin (mUR2) (Mus musculus, UniProt Q8VIH9); assay: Radioligand binding, mouse urotensin mUR2 membranes, FlashPlate, [125I]-Urotensin II; conditions: compound at 10 μM; [125I]-Urotensin II
T11 construct: purchased Perkin Elmer Biosignal
T11 sequence (Q8VIH9 1-385): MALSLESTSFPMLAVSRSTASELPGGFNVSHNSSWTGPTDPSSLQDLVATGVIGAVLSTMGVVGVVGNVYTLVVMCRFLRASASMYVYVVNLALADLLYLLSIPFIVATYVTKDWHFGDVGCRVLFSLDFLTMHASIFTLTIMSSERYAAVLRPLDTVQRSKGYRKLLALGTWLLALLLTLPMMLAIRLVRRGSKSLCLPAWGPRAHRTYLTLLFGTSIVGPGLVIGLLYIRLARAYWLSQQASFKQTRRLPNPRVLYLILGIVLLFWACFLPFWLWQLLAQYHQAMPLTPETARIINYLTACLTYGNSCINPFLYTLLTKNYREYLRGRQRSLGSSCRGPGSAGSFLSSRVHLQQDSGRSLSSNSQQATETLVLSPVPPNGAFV
Summary of the method: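 Cloned mouse urotensin (mUR2) receptor membranes from Perkin Elmer Biosignal were immobilized in FlashPlate microplates using a proprietary coating. Each well got 19.5 μl buffer, then 0.5 μl of DMSO, reference ligand, or compound. Adding 5 μl of [125I]-Urotensin II, diluted to 5× final concentration in binding buffer, started binding. Plates were sealed with TopSeal-A and incubated 1 hour at room temperature in the dark. Wells were counted for 30 seconds each on a TopCount after a 60-second delay, and percentage inhibition was calculated.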

T1 sequence (P41143 whole entry): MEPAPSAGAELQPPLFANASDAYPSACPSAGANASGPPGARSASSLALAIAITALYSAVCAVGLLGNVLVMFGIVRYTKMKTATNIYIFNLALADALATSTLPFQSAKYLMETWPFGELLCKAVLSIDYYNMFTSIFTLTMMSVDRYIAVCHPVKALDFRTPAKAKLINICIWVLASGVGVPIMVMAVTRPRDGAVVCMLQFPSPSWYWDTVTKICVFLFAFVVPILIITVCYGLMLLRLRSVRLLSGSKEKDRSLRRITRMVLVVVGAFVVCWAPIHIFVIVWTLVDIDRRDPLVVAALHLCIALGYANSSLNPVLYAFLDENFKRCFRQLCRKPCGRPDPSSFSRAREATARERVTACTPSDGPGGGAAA

Row | Structure (SMILES) | A1: inhibition of radioligand binding, human δ-opioid (DOP) (Human δ-opioid (DOP)) | A2: inhibition of radioligand binding, human κ-opioid (KOP) (Human κ-Opioid (KOP)) | A3: inhibition of radioligand binding, human melanocortin (MC3) (Human Melanocortin (MC3)) | A4: inhibition of radioligand binding, human melanocortin (MC4) (Human Melanocortin (MC4)) | A5: inhibition of radioligand binding, human melanocortin (MC5) (Human melanocortin (MC5)) | A6: inhibition of radioligand binding, human melanin-concentrating hormone (MCH1) [1] | A7: inhibition of radioligand binding, human μ-opioid (MOP) (Human μ-opioid (MOP)) | A8: inhibition of radioligand binding, human neurokinin (NK1) (Human neurokinin (NK1)) | A9: inhibition of radioligand binding, human neuropeptide Y (NPY-Y1) [2] | A10: inhibition of radioligand binding, human opioid (ORL1) (Human opioid (ORL1)) | A11: inhibition of radioligand binding, mouse urotensin (mUR2) (Mouse urotensin (mUR2))
1 | CSC1OC(COCc2ccc(Cl)cc2)C(O)C(OCc2ccc3ccccc3c2)C1NC(=O)CCNC(=N)N (stereo not shown) [compound 309] | − (“−” indicates less than 50% inhibition at 10 μM) | − (“−” indicates less than 50% inhibition at 10 μM) | − (“−” indicates less than 50% inhibition at 10 μM) | − (“−” indicates less than 50% inhibition at 10 μM) | + (“+” indicates greater than 50% inhibition at 10 μM) | − (“−” indicates less than 50% inhibition at 10 μM) | − (“−” indicates less than 50% inhibition at 10 μM) | + (“+” indicates greater than 50% inhibition at 10 μM) | − (“−” indicates less than 50% inhibition at 10 μM) | − (“−” indicates less than 50% inhibition at 10 μM) | − (“−” indicates less than 50% inhibition at 10 μM)
2 | CSC1OC(COCc2ccc(Cl)cc2)C(O)C(OCc2ccc3ccccc3c2)C1NC(=O)CCCN (stereo not shown) [compound 310] | − (“−” indicates less than 50% inhibition at 10 μM) | − (“−” indicates less than 50% inhibition at 10 μM) | − (“−” indicates less than 50% inhibition at 10 μM) | − (“−” indicates less than 50% inhibition at 10 μM) | − (“−” indicates less than 50% inhibition at 10 μM) | − (“−” indicates less than 50% inhibition at 10 μM) | − (“−” indicates less than 50% inhibition at 10 μM) | + (“+” indicates greater than 50% inhibition at 10 μM) | − (“−” indicates less than 50% inhibition at 10 μM) | − (“−” indicates less than 50% inhibition at 10 μM) | − (“−” indicates less than 50% inhibition at 10 μM)
3 | CSC1OC(COCc2ccc(Cl)cc2)C(O)C(OCc2ccc3ccccc3c2)C1NC(=O)CCCNC(=N)N (stereo not shown) [compound 311] | − (“−” indicates less than 50% inhibition at 10 μM) | − (“−” indicates less than 50% inhibition at 10 μM) | − (“−” indicates less than 50% inhibition at 10 μM) | + (“+” indicates greater than 50% inhibition at 10 μM) | + (“+” indicates greater than 50% inhibition at 10 μM) | − (“−” indicates less than 50% inhibition at 10 μM) | − (“−” indicates less than 50% inhibition at 10 μM) | + (“+” indicates greater than 50% inhibition at 10 μM) | − (“−” indicates less than 50% inhibition at 10 μM) | − (“−” indicates less than 50% inhibition at 10 μM) | − (“−” indicates less than 50% inhibition at 10 μM)
4 | CSC1OC(COCc2ccc(-c3ccccc3)cc2)C(O)C(OCc2ccc3ccccc3c2)C1NC(=O)CNC(=N)N (stereo not shown) [compound 312] | − (“−” indicates less than 50% inhibition at 10 μM) | − (“−” indicates less than 50% inhibition at 10 μM) | + (“+” indicates greater than 50% inhibition at 10 μM) | + (“+” indicates greater than 50% inhibition at 10 μM) | + (“+” indicates greater than 50% inhibition at 10 μM) | − (“−” indicates less than 50% inhibition at 10 μM) | − (“−” indicates less than 50% inhibition at 10 μM) | + (“+” indicates greater than 50% inhibition at 10 μM) | − (“−” indicates less than 50% inhibition at 10 μM) | − (“−” indicates less than 50% inhibition at 10 μM) | − (“−” indicates less than 50% inhibition at 10 μM)
5 | CSC1OC(COCc2ccc(-c3ccccc3)cc2)C(O)C(OCc2ccc3ccccc3c2)C1NC(=O)CCN (stereo not shown) [compound 313] | − (“−” indicates less than 50% inhibition at 10 μM) | − (“−” indicates less than 50% inhibition at 10 μM) | − (“−” indicates less than 50% inhibition at 10 μM) | − (“−” indicates less than 50% inhibition at 10 μM) | + (“+” indicates greater than 50% inhibition at 10 μM) | − (“−” indicates less than 50% inhibition at 10 μM) | − (“−” indicates less than 50% inhibition at 10 μM) | + (“+” indicates greater than 50% inhibition at 10 μM) | − (“−” indicates less than 50% inhibition at 10 μM) | − (“−” indicates less than 50% inhibition at 10 μM) | − (“−” indicates less than 50% inhibition at 10 μM)
